Experimental data published in the NIST ThermoML archive (doi:10.1021/je5010214).

Settings: Liquid, Vibrating tube method

CC(C)CO [2-methyl-1-propanol]
Settings	mass density [kg/m3]
303.15 K, 20042 kPa	809.402
303.15 K, 25084 kPa	812.578
303.15 K, 30167 kPa	816.191
303.15 K, 32070 kPa	817.319
303.15 K, 33147 kPa	817.694
303.15 K, 35162 kPa	818.815
303.15 K, 38019 kPa	820.574
303.15 K, 39970 kPa	821.716
303.15 K, 42004 kPa	823.024
303.15 K, 45033 kPa	824.95
303.15 K, 49864 kPa	827.592
303.15 K, 52115 kPa	829.036
303.15 K, 55239 kPa	830.776
303.15 K, 58089 kPa	832.479
303.15 K, 60079 kPa	833.282
303.15 K, 62294 kPa	834.706
303.15 K, 65137 kPa	835.715
303.16 K, 270.1 kPa	793.901
303.16 K, 464.4 kPa	794.084
303.16 K, 779.6 kPa	794.287
303.16 K, 2945 kPa	796.031
303.16 K, 4911.2 kPa	797.923
303.16 K, 7058.6 kPa	799.569
303.16 K, 12047 kPa	803.47
303.16 K, 22055 kPa	811.092
303.16 K, 28094 kPa	815.049
303.16 K, 32939 kPa	817.604
303.16 K, 34037 kPa	818.139
303.16 K, 48317 kPa	826.769
303.16 K, 66124 kPa	836.43
308.15 K, 96.7 kPa	791.579
308.15 K, 250.6 kPa	791.714
308.15 K, 562.2 kPa	791.995
308.15 K, 991.9 kPa	792.349
308.15 K, 5219.3 kPa	795.881
308.15 K, 10282 kPa	799.926
308.15 K, 15083 kPa	803.575
308.15 K, 32866 kPa	815.75
308.15 K, 35203 kPa	817.171
308.15 K, 48031 kPa	824.96
308.15 K, 55094 kPa	828.952
308.15 K, 60161 kPa	831.729
308.15 K, 62192 kPa	832.798
308.15 K, 66004 kPa	834.804
308.16 K, 770.2 kPa	792.158
308.16 K, 2101.2 kPa	793.3
308.16 K, 3195.1 kPa	794.224
308.16 K, 7083 kPa	797.398
308.16 K, 9108 kPa	799.011
308.16 K, 12379 kPa	801.538
308.16 K, 18161 kPa	805.827
308.16 K, 20006 kPa	807.165
308.16 K, 22192 kPa	808.686
308.16 K, 25100 kPa	810.705
308.16 K, 27887 kPa	812.568
308.16 K, 30041 kPa	813.99
308.16 K, 31933 kPa	815.242
308.16 K, 33077 kPa	815.959
308.16 K, 34026 kPa	816.482
308.16 K, 35193 kPa	817.245
308.16 K, 38088 kPa	818.995
308.16 K, 40106 kPa	820.225
308.16 K, 42282 kPa	821.541
308.16 K, 45145 kPa	823.251
308.16 K, 50089 kPa	826.126
308.16 K, 52047 kPa	827.233
308.16 K, 58085 kPa	830.585
308.16 K, 65217 kPa	834.405
313.15 K, 82.9 kPa	787.4
313.15 K, 316.8 kPa	787.607
313.15 K, 491.8 kPa	787.767
313.15 K, 890.9 kPa	788.108
313.15 K, 981.5 kPa	788.182
313.15 K, 1939.6 kPa	789.038
313.15 K, 2951 kPa	789.905
313.15 K, 4889.1 kPa	791.537
313.15 K, 6856.5 kPa	793.195
313.15 K, 8886.9 kPa	794.841
313.15 K, 10029 kPa	795.77
313.15 K, 11886 kPa	797.214
313.15 K, 14927 kPa	799.577
313.15 K, 17845 kPa	801.775
313.15 K, 20040 kPa	803.389
313.15 K, 21942 kPa	804.76
313.15 K, 24894 kPa	806.85
313.15 K, 28132 kPa	809.095
313.15 K, 29974 kPa	810.333
313.15 K, 32058 kPa	811.716
313.15 K, 35162 kPa	813.664
313.15 K, 37952 kPa	815.444
313.15 K, 40011 kPa	816.732
313.15 K, 41939 kPa	817.878
313.15 K, 45098 kPa	819.95
313.15 K, 47966 kPa	821.512
313.15 K, 49918 kPa	822.65
313.15 K, 52024 kPa	823.857
313.15 K, 54951 kPa	825.557
313.15 K, 58062 kPa	827.336
313.15 K, 60202 kPa	828.515
313.15 K, 65050 kPa	831.15
313.15 K, 66082 kPa	831.7
313.16 K, 33053 kPa	812.371
313.16 K, 33131 kPa	812.356
313.16 K, 34040 kPa	812.94
313.16 K, 62187 kPa	829.599
318.15 K, 368.3 kPa	783.457
318.15 K, 589.4 kPa	783.667
318.15 K, 9887.6 kPa	791.657
318.15 K, 33065 kPa	808.852
318.15 K, 33128 kPa	808.894
318.15 K, 35190 kPa	810.134
318.15 K, 48088 kPa	818.249
318.15 K, 52184 kPa	820.67
318.15 K, 60194 kPa	825.273
318.15 K, 62260 kPa	826.409
318.15 K, 65194 kPa	828.017
318.15 K, 66060 kPa	828.484
318.16 K, 128.5 kPa	783.253
318.16 K, 858.2 kPa	783.902
318.16 K, 1069.5 kPa	784.105
318.16 K, 1979.1 kPa	784.923
318.16 K, 2997.4 kPa	785.79
318.16 K, 4942.6 kPa	787.513
318.16 K, 6987.2 kPa	789.27
318.16 K, 8967.5 kPa	790.929
318.16 K, 11870 kPa	793.265
318.16 K, 14863 kPa	795.639
318.16 K, 17735 kPa	797.848
318.16 K, 19860 kPa	799.438
318.16 K, 21987 kPa	801.004
318.16 K, 25193 kPa	803.357
318.16 K, 27823 kPa	805.216
318.16 K, 30119 kPa	806.799
318.16 K, 32145 kPa	808.205
318.16 K, 34164 kPa	809.488
318.16 K, 38074 kPa	812.009
318.16 K, 40048 kPa	813.265
318.16 K, 41997 kPa	814.496
318.16 K, 45096 kPa	816.426
318.16 K, 50173 kPa	819.491
318.16 K, 55235 kPa	822.46
318.16 K, 58075 kPa	824.084
323.15 K, 62.1 kPa	778.89
323.15 K, 338 kPa	779.159
323.15 K, 557.5 kPa	779.374
323.15 K, 917.3 kPa	779.697
323.15 K, 2125.4 kPa	780.833
323.15 K, 3154.8 kPa	781.778
323.15 K, 5126.4 kPa	783.557
323.15 K, 7366.8 kPa	785.517
323.15 K, 9081.6 kPa	787.01
323.15 K, 10156 kPa	787.907
323.15 K, 12167 kPa	789.544
323.15 K, 15030 kPa	791.876
323.15 K, 18076 kPa	794.274
323.15 K, 19932 kPa	795.694
323.15 K, 22079 kPa	797.333
323.15 K, 25085 kPa	799.541
323.15 K, 28006 kPa	801.644
323.15 K, 30029 kPa	803.084
323.15 K, 31969 kPa	804.431
